The values below come from patent US11186874B2, “ERK1 and ERK2 mutations that confer resistance to MAPK pathway inhibitors” (Dana-Farber Cancer Institute, Inc., priority 2014, dated 2021).

Molecules are shown by their SMILES.

The test system of assay [1] is ERK2. Briefly: IP kinase assay, V5-tagged ERK2, phosphorylation of recombinant ELK-1 peptide. Format: biochemical, human. The note with it: for ERK kinase activity of ERK inhibitor resistance alleles in the presence of inhibitor: ERK2 resistance alleles, FIG. 3B, FIG. 10B. As to the method:
(§1) Phosphorylation of ELK-1 (at serine 383) was measured by Western blotting.
(§2) ERK1 and ERK2 open constructs were transferred into DEST40 (C-terminal V5 tag) vector (Invitrogen) using LR clonase II. A375 cells were transiently transfected with V5-tagged ERK1 or ERK2 constructs using X-tremeGENE HP (Roche). […] Reactions were stopped with the addition on 3× SDS loading buffer. Samples were boiled and supernatant was run on SDS-PAGE gel for western blotting.

Another assay relates to ERK1/2. Briefly: Western blotting of ERK signaling in A375 cells expressing ERK1/2 alleles. In kind it is cell-based. The following applies: for ERK signaling (RSK phosphorylation, DUSP6, cyclin D1) in the presence of ERK inhibitor: ten ERK inhibitor resistance alleles, DOX, 24 h. On the procedure: Cells were exposed to DOX with or without MAPK inhibitor at the same doses used in the screen for 24 h, then harvested in RIPA buffer, and run on SDS-PAGE. Proteins were transferred to PVDF membranes and analyzed using the following antibodies phosphoERK1/2, ERK1/2, phosphoELK-1 S383 (Santa Cruz), phosphoRSK (S380), RSK, tubulin, DUSP6 (Cell Signaling), cyclin D1 (Thermo Scientific), and V5 (Abcam). Relative expression was calculated by comparing densities of bands of phoshoELK-1 to total ERK (or V5). Values were normalized to untreated WT, which was set at 1.

For another assay, the system named is A375 cells. Briefly: MTS growth assay of A375 cells expressing DOX-inducible ERK1/2 alleles in the presence of MAPK pathway inhibitors. Format: cell-based. An excerpt:
To verify their resistance effects, we engineered the relevant mutations for highly mutated alleles or for low frequency alleles that were analogous between ERK1 and ERK2 within the coding sequence of ERK1 or ERK2 by site directed mutagenesis in the doxycycline-inducible vector. […] Here, we defined validation as a >4-fold increase in cell growth conferred by DOX-induced mutant ERK expression compared to control cells cultured without DOX (FIG. 2A, Table 4, FIG. 8G).
A375, WM266.4, or SKmel19 cells were plated in 96-well plates, with six replicates for each drug. Drugs were added the next day with or without DOX. Cell growth was analyzed 72-96 hours later by MTS assay (Promega). The inhibitor concentrations were the same as the screen. […] Growth was normalized to DMSO, NO-DOX controls, and graphed as percent growth. Heatmaps were created from growth assays using GENE-E (Available on the World Wide Web at broadinstitute.org/cancer/software/GENE-E/download.html). For some growth assays, a half-log dose response curve was generated to determine sensitivity. The concentration of DMSO was 0.1%.

The target in assay [2] is T1, ERK2 (Homo sapiens, UniProt P28482).
T1 construct: made in house; host or cells: A375 cells, transient transfection; captured on V5-agarose beads
Briefly: IP kinase assay, V5-tagged ERK2, phosphorylation of recombinant ELK-1 peptide. The note with it: wild type ERK2; VX-11e 0.1 μM added during the kinase assay. Format: biochemical. As to the method:
as §1, §2

In assay [3] the target is T2, ERK1 (Homo sapiens, UniProt P27361, Y148H).
T2 construct: made in house; host or cells: A375 cells, transient transfection; captured on V5-agarose beads
Briefly: IP kinase assay, V5-tagged ERK1, phosphorylation of recombinant ELK-1 peptide. Format: biochemical. The following applies: ERK1^Y148; trametinib 3 nM, 4 h.

The subject of assay [4] is ERK1. The description is as above. Format: biochemical, human. The following applies: ERK1 alleles; trametinib 3 nM, 4 h, added to cells prior to harvest.

T1 sequence (P28482 2-360): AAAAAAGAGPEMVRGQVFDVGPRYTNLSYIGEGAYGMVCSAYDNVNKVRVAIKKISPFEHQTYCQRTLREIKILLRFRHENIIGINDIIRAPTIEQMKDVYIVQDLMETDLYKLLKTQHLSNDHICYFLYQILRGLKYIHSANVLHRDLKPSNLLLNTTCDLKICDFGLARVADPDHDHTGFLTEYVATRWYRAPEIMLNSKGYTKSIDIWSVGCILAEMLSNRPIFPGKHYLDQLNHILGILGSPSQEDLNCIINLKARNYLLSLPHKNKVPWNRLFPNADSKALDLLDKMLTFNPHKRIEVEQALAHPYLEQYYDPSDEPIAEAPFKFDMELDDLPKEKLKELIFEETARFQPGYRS
T2 sequence (P27361 2-379 Y148H): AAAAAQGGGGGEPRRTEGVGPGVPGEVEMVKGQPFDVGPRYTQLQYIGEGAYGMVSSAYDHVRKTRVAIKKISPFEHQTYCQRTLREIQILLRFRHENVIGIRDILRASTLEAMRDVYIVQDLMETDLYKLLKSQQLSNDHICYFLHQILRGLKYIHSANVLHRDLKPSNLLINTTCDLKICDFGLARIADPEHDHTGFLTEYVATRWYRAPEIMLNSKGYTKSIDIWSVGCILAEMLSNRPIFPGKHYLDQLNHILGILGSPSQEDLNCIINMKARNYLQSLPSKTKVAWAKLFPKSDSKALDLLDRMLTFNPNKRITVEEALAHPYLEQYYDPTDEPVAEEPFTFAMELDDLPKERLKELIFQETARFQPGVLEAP

As for `O=C(Nc1ccc2[nH]nc(-c3ccncc3)c2c1)[C@@H]1CCN(CC(=O)N2CCN(c3ccc(-c4ncccn4)cc3)CC2)C1` [SCH772984], in the assay on ERK2 [1], the “ERK kinase activity of ERK inhibitor resistance alleles in the presence of inhibitor” value was “maintained ERK kinase activity”. For the same molecule, the “phosphorylation of ERK2-resistant alleles” value in the assay on ERK1/2 (A375, ERK inhibitor resistant ERK2 alleles) is “no effect”. For the same molecule, the “ERK signaling (RSK phosphorylation, DUSP6, cyclin D1) in the presence of ERK inhibitor” value in the assay on ERK1/2 (A375) is “maintained”. Besides, in the assay on ERK1/2 (A375, wild type ERK1/2), the “phosphorylation of wild type ERK1/2” value is reported as “decreased”. The growth advantage in the assay on A375 cells (ERK1^Y53H, 0.5 μM SCH772984) is recorded as 5 fold. The “increase in cell growth” value with A375 cells (ERK1^Y53H, 1 μM SCH772984) was 2.5 fold. Besides, in the assay with A375 cells (selected VX-11e-resistant ERK1 and ERK2 alleles, SCH772984), the “increase in cell growth with allele expression” value is “over 4 fold”.

In the case of `Cc1cnc(Nc2ccc(F)cc2Cl)nc1-c1c[nH]c(C(=O)N[C@H](CO)c2cccc(Cl)c2)c1` [VX-11e], the “ERK kinase activity of ERK inhibitor resistance alleles in the presence of inhibitor” value in the assay on ERK2 [1] is on record as “maintained ERK kinase activity”. The “ELK-1 phosphorylation (serine 383) induced by wild type ERK2” value at ERK2 [2] was “completely blocked”. The “ERK signaling (RSK phosphorylation, DUSP6, cyclin D1) in the presence of ERK inhibitor” value with ERK1/2 (A375) is reported as “sustained ERK signaling”. Moreover, the ERK phosphorylation result in the assay on ERK1/2 (any context examined) is “no effect”. Further, the “increase in cell growth conferred by DOX-induced mutant ERK expression compared to control cells cultured without DOX” value with A375 cells (16 validated of 20 candidate ERK1/2 resistance alleles, VX-11e 2 μM) was > 4 fold. For the same molecule, in the assay on A375 cells (kinase-dead ERK1 and ERK2 and GFP, VX-11e 2 μM), the “effect on growth in the presence of the ERK inhibitor” value was “no effect”. In addition, the “growth advantage in the presence of the ERK inhibitor” value in the assay on A375 cells (wild-type ERK1 and ERK2, VX-11e 2 μM) amounted to 1.5 fold.

With `CC(=O)Nc1cccc(-n2c(=O)n(C3CC3)c(=O)c3c(Nc4ccc(I)cc4F)n(C)c(=O)c(C)c32)c1` [trametinib], the “residual kinase activity of common docking domain mutants compared to other alleles” value was “diminished residual kinase activity” at ERK1 [3] and “diminished residual kinase activity” in the assay with ERK2 [1] (ERK2^Y131, ERK2^D321G, ERK2^E322K, trametinib 3 nM, 4 h). The “ERK kinase activity (ELK-1 peptide phosphorylation) of RAF/MEK inhibitor resistant alleles in the presence of MEK inhibitor” value in the assay on ERK1 [4] is “maintained ERK kinase activity”; in the assay with ERK2 [1] (ERK2 alleles, trametinib 3 nM, 4 h, added to cells prior to harvest) it was “maintained ERK kinase activity”.
